Experimental data: paper doi:10.1101/2020.08.17.255026v1 (biorxiv, 2020)

Key:
PxRDL2 [1] = target: T1, PxRDL2 (Plutella xylostella, UniProt C0L7I7); assay: two-electrode voltage clamp, Xenopus oocytes; type: cell-based
T1 sequence (C0L7I7 30-520): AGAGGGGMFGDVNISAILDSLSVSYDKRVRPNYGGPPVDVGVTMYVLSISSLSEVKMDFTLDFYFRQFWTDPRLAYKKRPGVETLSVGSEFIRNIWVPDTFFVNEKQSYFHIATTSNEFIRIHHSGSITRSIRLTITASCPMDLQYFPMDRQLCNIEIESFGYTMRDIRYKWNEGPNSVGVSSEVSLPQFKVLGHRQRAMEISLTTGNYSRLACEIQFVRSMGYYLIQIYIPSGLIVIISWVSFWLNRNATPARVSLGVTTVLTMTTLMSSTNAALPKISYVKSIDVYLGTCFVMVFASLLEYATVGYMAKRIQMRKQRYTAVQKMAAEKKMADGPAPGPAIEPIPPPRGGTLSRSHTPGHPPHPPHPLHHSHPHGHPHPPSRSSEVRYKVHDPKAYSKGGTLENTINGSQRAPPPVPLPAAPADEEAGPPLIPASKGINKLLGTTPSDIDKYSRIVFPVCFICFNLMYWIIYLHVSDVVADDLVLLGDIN

PxRDL1 [2] = target: T2, PxRDL1 (Plutella xylostella, UniProt C0L7I5); assay: cell-based; parameters: species or system Xenopus laevis oocytes
T2 sequence (C0L7I5 26-485): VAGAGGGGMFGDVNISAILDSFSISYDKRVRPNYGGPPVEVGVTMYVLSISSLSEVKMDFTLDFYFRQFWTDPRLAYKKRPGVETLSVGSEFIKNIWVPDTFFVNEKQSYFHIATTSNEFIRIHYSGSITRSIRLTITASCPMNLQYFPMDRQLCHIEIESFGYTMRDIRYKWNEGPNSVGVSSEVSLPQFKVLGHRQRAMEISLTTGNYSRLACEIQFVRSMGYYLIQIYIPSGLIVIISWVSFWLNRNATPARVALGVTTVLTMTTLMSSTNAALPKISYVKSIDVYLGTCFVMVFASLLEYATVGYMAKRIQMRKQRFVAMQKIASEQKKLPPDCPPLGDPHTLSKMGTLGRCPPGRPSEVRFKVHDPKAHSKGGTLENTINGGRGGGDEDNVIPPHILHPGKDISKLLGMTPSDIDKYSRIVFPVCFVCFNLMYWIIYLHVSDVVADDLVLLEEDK

PxRDL2 [3] = target: T1, PxRDL2; assay: two-electrode voltage clamp, Xenopus oocytes; type: cell-based; remark: listed apart in the source
PxRDL1 [4] = target: T2, PxRDL1; assay: cell-based; parameters: species or system Xenopus laevis oocytes; remark: listed apart in the source

EC50 (PxRDL2 [1]) | EC50 (PxRDL1 [2]) | SMILES | IC50 (PxRDL2 [3]) | IC50 (PxRDL1 [4])
153 µM | 20.8 ± 5.99 µM | NCCCC(=O)O [GABA] |  | 
 |  | N#Cc1nn(-c2c(Cl)cc(C(F)(F)F)cc2Cl)c(N)c1[S+]([O-])C(F)(F)F (stereo not shown) [fipronil] | 5.23 µM | 0.13 ± 0.01 µM
